Data taken from patent US4822790A, “1-Sulfo-2-oxoazetidine derivatives and their production” (Takeda Chemical Industries, Ltd., priority 1980, dated 1989).
Values after ≈ are worked out from the molar mass of the structure shown. Structures can show the parent of a compound that is named as a salt.

Key:
Format in all cases: cell-based
[1] = test system: Klebsiella pneumoniae TN 1711; experiment: MIC by agar dilution method (Experiment C), Klebsiella pneumoniae TN 1711; conditions: TN1711, Trypticase Soy agar, about 10^8 CFU/ml, 37° C. overnight, read-out: Minimal inhibitory concentration (MIC)
Method: (§1) The tables given below set forth the minimal inhibitory concentrations (MIC) of some typical compounds [I]C as obtained in the working examples. The minimal inhibitory concentrations of the tested compounds are determined by the agar dilution method. Namely, 1.0 ml. of aqueous solution of the tested compounds diluted by serial dilutions is poured into test petri dish. Subsequently 9.0 ml. of Trypticase Soy agar is poured into the dish and mixed. On the mixed agar plate, one loopful of bacterial suspension (about 10^8 CFU/ml.) of test microorganism is streaked. After the incubation at 37° C. overnight, the lowest concentration of the tested compounds which cause apparently complete inhibition of growth of the test microorganism is taken to be minimal inhibitory concentration. (2) Klebsiella pneumoniae TN 1711

Escherichia coli T-7 = experiment: Antibacterial test (MIC), Escherichia coli T-7; conditions: Escherichia coli, T7; medium TSA; read-out: Minimum inhibitory concentration (MIC)
From the text: (§2) The following is media and compounds employed in the antibacterial test.
(§3) TSA=Trypticase soy agar [Baltimore Biologicals (U.S.A.)]
(§4) B-TSA=Blood trypticase soy agar

Escherichia coli 0-111 = experiment: Antibacterial test (MIC), Escherichia coli 0-111; conditions: Escherichia coli, 0111; medium TSA; read-out: Minimum inhibitory concentration (MIC)
From the text: as §2, §3, §4

[2] = test system: Enterobacter cloacae IFO 12937; experiment: MIC by agar dilution method (Experiment C), Enterobacter cloacae IFO 12937; conditions: IFO12937, Trypticase Soy agar, about 10^8 CFU/ml, 37° C. overnight, read-out: Minimal inhibitory concentration (MIC)
Method: as §1, with “(1) Enterobacter cloacae IFO 12937” for “(2) Klebsiella pneumoniae TN 1711”

[3] = test system: Staphylococcus aureus 308A-1; experiment: Antibacterial test (MIC), Staphylococcus aureus 308A-1; conditions: Staphylococcus aureus, 308A1, read-out: Minimum inhibitory concentration (MIC)
From the text: as §2, §3, §4

[4] = test system: Streptococcus pyogenes E-14; experiment: Antibacterial test (MIC), Streptococcus pyogenes E-14; conditions: Streptococcus pyogenes, E14, read-out: Minimum inhibitory concentration (MIC)
From the text: as §2, §3, §4

[5] = test system: Streptococcus pneumoniae Type I; experiment: Antibacterial test (MIC), Streptococcus pneumoniae Type I; conditions: Streptococcus pneumoniae, read-out: Minimum inhibitory concentration (MIC)
From the text: as §2, §3, §4

[6] = test system: Pseudomonas aeruginosa IFO 3455; experiment: Antibacterial test (MIC), Pseudomonas aeruginosa IFO 3455; conditions: Pseudomonas aeruginosa, IFO3455, read-out: Minimum inhibitory concentration (MIC)
From the text: as §2, §3, §4

[7] = test system: Streptococcus mitis America; experiment: Antibacterial test (MIC), Streptococcus mitis America; conditions: Streptococcus mitis, read-out: Minimum inhibitory concentration (MIC)
From the text: as §2, §3, §4

| MIC [1] | MIC [2] | SMILES | MIC (Escherichia coli T-7) | MIC (Escherichia coli 0-111) | other results |
| --- | --- | --- | --- | --- | --- |
| 0.2 µg/mL | 6.25 µg/mL | COC(=O)[C@H]1[C@@H](NC(=O)/C(=N\OCC(=O)O)c2csc(N)n2)C(=O)N1S(=O)(=O)O (relative stereo) [Example No. 65C, cis-3-[2-(2-amino-4-thiazolyl)-2-carboxylmethyloxyiminoacetamido]-4-methoxycarbonyl-2-oxoazetidine-1-sulfonic acid disodium salt] | – | – | – |
| 6.25 µg/mL | – | CO/N=C(\C(=O)N[C@H]1C(=O)N(S(=O)(=O)O)[C@H]1COC(N)=O)c1csc(N)n1 (relative stereo) [Example No. 138C, sodium cis-3-[2-(2-amino-4-thiazolyl)-2-methoxyiminoacetamido]-4-carbamoyloxymethyl-2-oxoazetidine-1-sulfonate (syn-isomer)] | – | – | – |
| – | 1.56 µg/mL | C=CCO/N=C(\C(=O)N[C@H]1C(=O)N(S(=O)(=O)O)[C@H]1C(=O)OC)c1csc(N)n1 (relative stereo) [Example No. 72C, sodium cis-3-[2-(2-amino-4-thiazolyl)-2-allyloxyiminoacetamido]-4-methoxycarbonyl-2-oxoazetidine-1-sulfonate] | – | – | – |
| 0.78 µg/mL | 3.13 µg/mL | COC(=O)[C@H]1[C@@H](NC(=O)/C(=N\OC(C)(C)C(=O)O)c2csc(N)n2)C(=O)N1S(=O)(=O)O (relative stereo) [Example No. 68C, cis-3-[2-(2-amino-4-thiazolyl)-2-(1-methyl-1-carboxyethyloxyimino)acetamido]-4-methoxycarbonyl-2-oxoazetidine-1-sulfonic acid disodium salt] | – | – | – |
| 6.25 µg/mL (≈ 12.7 µM) | 3.13 µg/mL (≈ 6.34 µM) | COC(=O)C[C@@H]1[C@@H](NC(=O)/C(=N\OC(C)(C)C(=O)O)c2csc(N)n2)C(=O)N1S(=O)(=O)O (relative stereo) [Example No. 158C, trans-3-[2-(2-amino-4-thiazolyl)-2-(1-methyl-1-carboxyethyloxyimino)acetamido]-4-methoxycarbonylmethyl-2-oxo-azetidine-1-sulfonic acid (syn-isomer)] | – | – | – |
| 3.13 µg/mL (≈ 6.74 µM) | 6.25 µg/mL (≈ 13.5 µM) | CC(C)(O/N=C(\C(=O)N[C@H]1C(=O)N(S(=O)(=O)O)[C@@H]1C(N)=O)c1csc(N)n1)C(=O)O (relative stereo) [Example No. 144C, trans-3-[2-(2-amino-4-thiazolyl)-2-(1-methyl-1-carboxyethyloxyimino)acetamido]-4-carbamoyl-2-oxoazetidine-1-sulfonic acid (syn-isomer)] | – | – | – |
| 0.39 µg/mL (≈ 0.84 µM) | 1.56 µg/mL (≈ 3.36 µM) | CC(C)(O/N=C(\C(=O)N[C@H]1C(=O)N(S(=O)(=O)O)[C@H]1C(N)=O)c1csc(N)n1)C(=O)O (relative stereo) [Example No. 133C, cis-3-[2-(2-amino-4-thiazolyl)-2-(1-methyl-1-carboxyethyloxyimino)acetamido]-4-carbamoyl-2-oxoazetidine-1-sulfonic acid (syn-isomer)] | – | – | – |
| 0.39 µg/mL (≈ 0.792 µM) | 3.13 µg/mL (≈ 6.36 µM) | CC(=O)NC[C@H]1[C@@H](NC(=O)/C(=N\OC(C)(C)C(=O)O)c2csc(N)n2)C(=O)N1S(=O)(=O)O (relative stereo) [Example No. 147C, cis-3-[2-(2-amino-4-thiazolyl)-2-(1-methyl-1-carboxyethyloxyimino)acetamido]-4-acetamidomethyl-2-oxoazetidine-1-sulfonic acid (syn-isomer)] | – | – | – |

Second part, the compound before the results:

| SMILES | MIC [1] | MIC [2] | MIC (Escherichia coli T-7) | MIC (Escherichia coli 0-111) | other results |
| --- | --- | --- | --- | --- | --- |
| CC(=O)OC[C@H]1[C@@H](NC(=O)/C(=N\OC(C)(C)C(=O)O)c2csc(N)n2)C(=O)N1S(=O)(=O)O (relative stereo) [Example No. 136C, cis-3-[2-(2-amino-4-thiazolyl)-2-(1-methyl-1-carboxyethyloxyimino)acetamido]-4-acetoxymethyl-2-oxoazetidine-1-sulfonic acid disodium salt (syn-isomer)] | 1.56 µg/mL | – | – | – | – |
| CCN1CCN(C(=O)N[C@@H](C(=O)NC2CN(S(=O)(=O)O)C2=O)c2ccccc2)C(=O)C1=O (single isomer, unassigned) [Compound B, Sodium 3-[D(-)-N-(4-ethyl-2,3-dioxo-1-piperazinocarbonyl)-phenylglycinamido]-2-oxoazetidine-1-sulfonate] | – | – | > 100 µg/mL | 0.2 µg/mL | – |
| O=C(NC1CN(S(=O)(=O)O)C1=O)[C@H](NC(=O)N1CCN(N=Cc2cccs2)C1=O)c1ccccc1 (stereo partly drawn) [Compound K, Sodium 3-[D-2-[[2-oxo-3-(thiophen-2-aldoimino)-imidazolidin-1-yl]-carboxamido]-2-phenylacetamido]-2-oxoazetidine-1-sulfonate] | – | – | > 100 µg/mL | 0.39 µg/mL | – |
| CCN1CCN(C(=O)NC(C(=O)NC2CN(S(=O)(=O)O)C2=O)c2csc(N)n2)C(=O)C1=O (stereo not drawn) [Compound D, Sodium 3-[2-(4-ethyl-2,3-dioxo-1-piperazinocarboxamido)-2-(2-amino-4-thiazolyl)-acetamido]-2-oxoazetidine-1-sulfonate] | – | – | > 100 µg/mL | 0.1 µg/mL | – |
| CCCCCCCCN1CCN(C(=O)N[C@@H](C(=O)NC2CN(S(=O)(=O)O)C2=O)c2ccccc2)C(=O)C1=O (stereo partly drawn) [Compound G, Sodium 3-[D-2-(4-n-octyl-2,3-dioxo-1-piperazinocarboxamido)-2-phenylacetamido]-2-oxoazetidine-1-sulfonate] | – | – | > 100 µg/mL | 0.78 µg/mL | – |
| CCCCCCCCN1CCN(C(=O)NC(C(=O)NC2CN(S(=O)(=O)O)C2=O)c2csc(N)n2)C(=O)C1=O (stereo not drawn) [Compound H, Sodium 3-[2-(4-n-octyl-2,3-dioxo-1-piperazinocarboxamido)-2-(2-amino-4-thiazolyl)-acetamido]2-oxoazetidine-1-sulfonate] | – | – | > 100 µg/mL | 3.13 µg/mL | MIC [3]: 3.13 µg/mL; MIC [4]: 3.13 µg/mL; MIC [5]: 3.13 µg/mL |
| O=C(NC1CN(S(=O)(=O)O)C1=O)[C@H](NC(=O)N1CCN(N=Cc2ccco2)C1=O)c1ccccc1 (stereo partly drawn) [Compound I, Sodium 3-[D-2-[(2-oxo-3-furfurylideneaminoimidazolidin-1-yl)-carboxamido]-2-phenylacetamido]-2-oxoazetidine-1-sulfonate] | – | – | > 100 µg/mL | 3.13 µg/mL | MIC [3]: 3.13 µg/mL; MIC [6]: 3.13 µg/mL; MIC [7]: 3.13 µg/mL |
